# Assays:
# pigweed = assay: Test B pre/postemergence pigweed; format: in vivo, Amaranthus retroflexus; settings: for Redroot pigweed plant response rating: scale of 0 to 10 where 0 is no effect and 10 is complete control
# Method in brief: (§1)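 Herbicidal effect was estimated by eye on a ten-point control scale after plants spent twelve to sixteen days in a greenhouse following soil or foliar treatment. Foliar sprays targeted plants at one to four leaves; all doses were formulated in a non-phytotoxic solvent with surfactant.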
# purple nutsedge = assay: Test B pre/postemergence purple nutsedge; format: in vivo, Cyperus rotundus; settings: for Nutsedge plant response rating: scale of 0 to 10 where 0 is no effect and 10 is complete control
# Method in brief: as §1
# rape = assay: Test B pre/postemergence rape; format: in vivo, Brassica napus; settings: for Rape plant response rating: scale of 0 to 10 where 0 is no effect and 10 is complete control
# Method in brief: as §1
# morningglory = assay: Test B pre/postemergence morningglory; format: in vivo, Ipomoea hederacea; settings: for Morningglory plant response rating: scale of 0 to 10 where 0 is no effect and 10 is complete control
# Method in brief: as §1
# giant foxtail = assay: Test B pre/postemergence giant foxtail; format: in vivo, Setaria faberii; settings: for Giant foxtail plant response rating: scale of 0 to 10 where 0 is no effect and 10 is complete control
# Method in brief: as §1
# crabgrass = assay: Test B pre/postemergence crabgrass; format: in vivo, Digitaria sanguinalis; settings: for Crabgrass plant response rating: scale of 0 to 10 where 0 is no effect and 10 is complete control
# Method in brief: as §1
# wild oat = assay: Test B pre/postemergence wild oat; format: in vivo, Avena fatua; settings: for Wild oats plant response rating: scale of 0 to 10 where 0 is no effect and 10 is complete control
# Method in brief: as §1
# velvetleaf = assay: Test B pre/postemergence velvetleaf; format: in vivo, Abutilon theophrasti; settings: for Velvetleaf plant response rating: scale of 0 to 10 where 0 is no effect and 10 is complete control
# Method in brief: as §1
# rice = assay: Test B flood test rice; format: in vivo, Oryza sativa
# Method in brief: (§2)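 Plants were grown to the 2-leaf stage before treatment with test chemical, then held in a greenhouse for twelve to sixteen days. Injury was visually rated against untreated controls on a 0–10 scale, where 0 is no effect and 10 is complete control.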
# smallflower flatsedge = assay: Test B flood test smallflower flatsedge; format: in vivo, Cyperus difformis
# Method in brief: as §2
# corn = assay: Test B pre/postemergence corn; format: in vivo, Zea mays; settings: for Corn plant response rating: scale of 0 to 10 where 0 is no effect and 10 is complete control
# Method in brief: as §1
# duck salad = assay: Test B flood test duck salad; format: in vivo, Heteranthera limosa
# Method in brief: as §2
# cocklebur = assay: Test B pre/postemergence cocklebur; format: in vivo, Xanthium strumarium; settings: for Cocklebur plant response rating: scale of 0 to 10 where 0 is no effect and 10 is complete control
# Method in brief: as §1
# sugar beet = assay: Test B pre/postemergence sugar beet; format: in vivo, Beta vulgaris; settings: for Sugarbeets plant response rating: scale of 0 to 10 where 0 is no effect and 10 is complete control
# Method in brief: as §1
# soybean = assay: Test B pre/postemergence soybean; format: in vivo, Glycine max; settings: for Soybean plant response rating: scale of 0 to 10 where 0 is no effect and 10 is complete control
# Method in brief: as §1
# wheat = assay: Test B pre/postemergence wheat; format: in vivo, Triticum aestivum; settings: for Wheat plant response rating: scale of 0 to 10 where 0 is no effect and 10 is complete control
# Method in brief: as §1
# [1] = Postemergence, Rate 125 g/ha, scale 0 to 10, 0 is no effect, 10 is complete control
# [2] = Postemergence, Rate 250 g/ha, scale 0 to 10, 0 is no effect, 10 is complete control
# [3] = Preemergence, Rate 62 g/ha, scale 0 to 10 (0 no effect, 10 complete control)
# [4] = Rate 500 g/ha, Postemergence, scale 0 to 10, 0 no effect, 10 complete control
# [5] = Rate 62 g/ha, flood test species, Pre-emergence, visual evaluation after twelve to sixteen days
# [6] = Rate 125 g/ha, under heading Pre-emergence, flood test species, visual evaluation after twelve to sixteen days
# [7] = Rate 250 g/ha, Pre-emergence, flood-test species, scale 0 to 10, 0 is no effect, 10 is complete control
# [8] = Rate 500 g/ha, Pre-emergence, flood test species, scale 0 to 10 (0 no effect, 10 complete control)
smiles,measurement,setting,value
CC(C)N(C(=O)n1oc(=O)n(N2CCOCC2)c1=O)c1ccc(F)cc1F [Compound 384],"Plant response rating, Redroot pigweed",pigweed; [1],0
same,"Plant response rating, Redroot pigweed",pigweed; [2],0
same,"Plant response rating, Redroot pigweed",pigweed; [3],0
same,Redroot pigweed plant response rating (0 to 10 scale),"pigweed; Preemergence, Rate 125 g/ha",0
same,Redroot pigweed plant response rating,"pigweed; Preemergence, Rate 250 g/ha",0
same,Redroot pigweed plant response rating,"pigweed; Preemergence, Rate 500 g/ha",0
same,Redroot pigweed plant response rating,"pigweed; Rate 62 g/ha, Postemergence",0
same,"Plant response rating, Redroot pigweed",pigweed; [4],0
same,"Plant response rating, Nutsedge",purple nutsedge; [1],0
same,"Plant response rating, Nutsedge",purple nutsedge; [2],0
same,"Plant response rating, Nutsedge",purple nutsedge; [3],0
same,Nutsedge plant response rating (0 to 10 scale),"purple nutsedge; Preemergence, Rate 125 g/ha",0
same,Nutsedge plant response rating,"purple nutsedge; Preemergence, Rate 250 g/ha",0
same,Nutsedge plant response rating,"purple nutsedge; Preemergence, Rate 500 g/ha",0
same,Nutsedge plant response rating,"purple nutsedge; Rate 62 g/ha, Postemergence",0
same,"Plant response rating, Nutsedge",purple nutsedge; [4],0
same,"Plant response rating, Rape",rape; [1],0
same,"Plant response rating, Rape",rape; [2],0
same,"Plant response rating, Rape",rape; [3],0
same,Rape plant response rating (0 to 10 scale),"rape; Preemergence, Rate 125 g/ha",0
same,Rape plant response rating,"rape; Preemergence, Rate 250 g/ha",0
same,Rape plant response rating,"rape; Preemergence, Rate 500 g/ha",0
same,Rape plant response rating,"rape; Rate 62 g/ha, Postemergence",0
same,"Plant response rating, Morningglory",morningglory; [1],0
same,"Plant response rating, Morningglory",morningglory; [2],0
same,"Plant response rating, Morningglory",morningglory; [3],0
same,Morningglory plant response rating (0 to 10 scale),"morningglory; Preemergence, Rate 125 g/ha",0
same,Morningglory plant response rating,"morningglory; Preemergence, Rate 250 g/ha",0
same,Morningglory plant response rating,"morningglory; Preemergence, Rate 500 g/ha",2
same,Morningglory plant response rating,"morningglory; Rate 62 g/ha, Postemergence",0
same,"Plant response rating, Morningglory",morningglory; [4],0
same,"Plant response rating, Giant foxtail",giant foxtail; [1],8
same,"Plant response rating, Giant foxtail",giant foxtail; [2],9
same,"Plant response rating, Giant foxtail",giant foxtail; [3],9
same,Giant foxtail plant response rating (0 to 10 scale),"giant foxtail; Preemergence, Rate 125 g/ha",10
same,Giant foxtail plant response rating,"giant foxtail; Preemergence, Rate 250 g/ha",10
same,Giant foxtail plant response rating,"giant foxtail; Preemergence, Rate 500 g/ha",10
same,Giant foxtail plant response rating,"giant foxtail; Rate 62 g/ha, Postemergence",4
same,"Plant response rating, Giant foxtail",giant foxtail; [4],9
same,"Plant response rating, Crabgrass",crabgrass; [1],7
same,"Plant response rating, Crabgrass",crabgrass; [2],8
same,"Plant response rating, Crabgrass",crabgrass; [3],6
same,Crabgrass plant response rating (0 to 10 scale),"crabgrass; Preemergence, Rate 125 g/ha",6
same,Crabgrass plant response rating,"crabgrass; Preemergence, Rate 250 g/ha",9
same,Crabgrass plant response rating,"crabgrass; Preemergence, Rate 500 g/ha",9
same,Crabgrass plant response rating,"crabgrass; Rate 62 g/ha, Postemergence",1
same,"Plant response rating, Crabgrass",crabgrass; [4],8
same,"Plant response rating, Wild oats",wild oat; [1],0
same,"Plant response rating, Wild oats",wild oat; [2],0
same,"Plant response rating, Wild oats",wild oat; [3],0
same,Wild oats plant response rating (0 to 10 scale),"wild oat; Preemergence, Rate 125 g/ha",0
same,Wild oats plant response rating,"wild oat; Preemergence, Rate 250 g/ha",6
same,Wild oats plant response rating,"wild oat; Preemergence, Rate 500 g/ha",6
same,Wild oats plant response rating,"wild oat; Rate 62 g/ha, Postemergence",0
same,"Plant response rating, Wild oats",wild oat; [4],4
same,"Plant response rating, Velvetleaf",velvetleaf; [1],0
same,"Plant response rating, Velvetleaf",velvetleaf; [2],0
same,"Plant response rating, Velvetleaf",velvetleaf; [3],0
same,Velvetleaf plant response rating (0 to 10 scale),"velvetleaf; Preemergence, Rate 125 g/ha",0
same,Velvetleaf plant response rating,"velvetleaf; Preemergence, Rate 250 g/ha",1
same,Velvetleaf plant response rating,"velvetleaf; Preemergence, Rate 500 g/ha",3
same,Velvetleaf plant response rating,"velvetleaf; Rate 62 g/ha, Postemergence",0
same,"Plant response rating, Velvetleaf",velvetleaf; [4],0
same,"Plant response rating, Rice (0 to 10 scale, 0 is no effect, 10 is complete control)",rice; [5],0
same,"Rice plant response rating (0 to 10 scale, 0 is no effect, 10 is complete control)",rice; [6],0
same,Rice plant response rating,rice; [7],0
same,Rice plant response rating,rice; [8],0
same,"Plant response rating, S. Flatsedge (0 to 10 scale, 0 is no effect, 10 is complete control)",smallflower flatsedge; [5],0
same,"S. Flatsedge plant response rating (0 to 10 scale, 0 is no effect, 10 is complete control)",smallflower flatsedge; [6],0
same,S. Flatsedge plant response rating,smallflower flatsedge; [7],0
same,S. Flatsedge plant response rating,smallflower flatsedge; [8],0
same,"Plant response rating, Corn",corn; [1],0
same,"Plant response rating, Corn",corn; [2],0
same,"Plant response rating, Corn",corn; [3],0
same,Corn plant response rating,"corn; Preemergence, Rate 500 g/ha",5
same,Corn plant response rating,"corn; Rate 62 g/ha, Postemergence",0
same,"Plant response rating, Corn",corn; [4],0
same,"Plant response rating, Ducksalad (0 to 10 scale, 0 is no effect, 10 is complete control)",duck salad; [5],0
same,"Ducksalad plant response rating (0 to 10 scale, 0 is no effect, 10 is complete control)",duck salad; [6],0
same,Ducksalad plant response rating,duck salad; [7],0
same,Ducksalad plant response rating,duck salad; [8],0
same,"Plant response rating, Cocklebur",cocklebur; [1],0
same,"Plant response rating, Cocklebur",cocklebur; [2],0
same,"Plant response rating, Cocklebur",cocklebur; [3],0
same,Cocklebur plant response rating (0 to 10 scale),"cocklebur; Preemergence, Rate 125 g/ha",0
same,Cocklebur plant response rating,"cocklebur; Preemergence, Rate 250 g/ha",0
same,Cocklebur plant response rating,"cocklebur; Preemergence, Rate 500 g/ha",0
same,Cocklebur plant response rating,"cocklebur; Rate 62 g/ha, Postemergence",0
same,"Plant response rating, Cocklebur",cocklebur; [4],0
same,"Plant response rating, Sugarbeets",sugar beet; [1],0
same,"Plant response rating, Sugarbeets",sugar beet; [2],0
same,"Plant response rating, Sugarbeets",sugar beet; [3],0
same,Sugarbeets plant response rating (0 to 10 scale),"sugar beet; Preemergence, Rate 125 g/ha",0
same,Sugarbeets plant response rating,"sugar beet; Preemergence, Rate 250 g/ha",0
same,Sugarbeets plant response rating,"sugar beet; Preemergence, Rate 500 g/ha",2
same,Sugarbeets plant response rating,"sugar beet; Rate 62 g/ha, Postemergence",0
same,"Plant response rating, Sugarbeets",sugar beet; [4],0
same,"Plant response rating, Soybean",soybean; [1],2
same,"Plant response rating, Soybean",soybean; [2],3
same,"Plant response rating, Soybean",soybean; [3],0
same,Soybean plant response rating (0 to 10 scale),"soybean; Preemergence, Rate 125 g/ha",0
same,Soybean plant response rating,"soybean; Preemergence, Rate 250 g/ha",0
same,Soybean plant response rating,"soybean; Preemergence, Rate 500 g/ha",3
same,Soybean plant response rating,"soybean; Rate 62 g/ha, Postemergence",1
same,"Plant response rating, Soybean",soybean; [4],3
same,"Plant response rating, Wheat",wheat; [1],0
same,"Plant response rating, Wheat",wheat; [2],2
same,"Plant response rating, Wheat",wheat; [3],0
same,Wheat plant response rating (0 to 10 scale),"wheat; Preemergence, Rate 125 g/ha",0
same,Wheat plant response rating,"wheat; Preemergence, Rate 250 g/ha",2
same,Wheat plant response rating,"wheat; Preemergence, Rate 500 g/ha",3
same,Wheat plant response rating,"wheat; Rate 62 g/ha, Postemergence",0
same,"Plant response rating, Wheat",wheat; [4],3
